Experimental findings from PMC4514850, “A Novel TGR5 Activator WB403 Promotes GLP-1 Secretion and Preserves Pancreatic β-Cells in Type 2 Diabetic Mice” (PLoS ONE, 2015) are described below.

Entries after “also recorded” stand apart in the source; their conditions may differ.

One data set relates to NCI-H716 cells. In words: active GLP-1 secretion in NCI-H716 cells. The class given is cell-based, human. The settings on record: 10 μmol/l, 30 min. The protocol: Endocrine differentiation was induced by seeding NCI-H716 cells in plates coated with Matrigel (Becton Dickinson). Cells were washed with RPMI-1640 medium without FBS and incubated in the same medium containing indicated compounds at 10 μmol/l. The condition medium was collected after 30 min. GLP-1 secretion in MIN6 or primary enterocytes was conducted similarly. To isolate primary enterocytes, ileum or colon was cut into 2 cm length, rinsed by PBS (pH7.2∼7.4) before dispersed in 10 mmol/l EDTA/PBS (pH7.4) for 15 min at room temperature, followed by pipetting up and down. Enterocytes were collected by filtration through a 70 μm cell strainer. To study the effect of WB403 on GLP-1 secretion in vivo, mice in group of three were fasted overnight and orally received 0, 50, 100 mg/kg of WB403 dispersed in 0.5% CMC with a DPP-4 inhibitor (5 mg/kg). There were 5 animals in each group. 2 g/kg glucose was administrated 30 min later and blood was collected 10 min after glucose challenge.
The GLP-1 (active) ELISA kit was purchased from Millipore, and insulin ELISA kit was from Mercodia. For quantitative determination of cAMP, a competitive enzyme immunoassay kit from R&D system was used. All immunoassays were performed according to manufacturers’ instructions.

Data set [1] concerns normal mice. In words: oral glucose tolerance test in normal mice. As to conditions: 4 g/kg glucose, oral 50, 100 mg/kg 30 min before load. The class given is in vivo. The protocol:
(§1) Mice were fasted overnight (14 h) before glucose tolerance tests. Normal mice received a 4 g/kg glucose challenge and for diabetic mice it’s 2 g/kg. WB403 at 50, 100 mg/kg, or sitagliptin at 100 mg/kg were administrated orally 30 min prior to glucose load (n = 10). For vehicle group, 0.5% CMC was administrated. Blood glucose levels were measured from tail bleeds with a glucometer (Roche, Accu-Chek Performa) at specified time points. Animals were treated and assessed in the order of the vehicle, WB403 50, 100 mg/kg and sitagliptin 100 mg/kg group.
Fig 2 Effects of WB403 on glucose tolerance during OGTT in normal and diabetic mice. OGTT time course and AUC in normal mice (A, B), HFD/STZ mice (C, D) and db/db mice (E, F). Values represent mean ± SD (n = 10). *p<0.05, **p<0.01, ***p<0.001 vs. vehicle group. Asterisks in A, C and E reflect significance between WB403 100 mg/kg and vehicle group.

Data set [2] deals with db/db mice. In words: oral glucose tolerance test in db/db mice. The settings on record: 2 g/kg glucose, oral 50, 100 mg/kg 30 min before load. The format is in vivo. As for the experimental part:
(§2) Five-week old male ICR mice and db/db (C57BL BKS cg-M+/+ lepr-/-) mice were purchased from Shanghai SLAC Laboratory Animal Co., Ltd. (Shanghai, China). Mice were housed 4–5 per cage and allowed access to normal chow diet and autoclaved water freely. They were fed at a constant room temperature (25°C) with a 12-h light (7:00 AM)/dark (7:00 PM) cycle. All the mice were monitored at least daily, and no adverse events were observed. In general, the db/db mice show a high food intake at 4-week old and become obese and develop type 2 diabetes at 8-week age. Postprandial 2 h blood glucose was assessed and mice with the similar degree of hyperglycemia and body weight were randomized into different groups in order to get a similar average PBG in each group.
as §1
Fig 2 Effects of WB403 on glucose tolerance during OGTT in normal and diabetic mice. […]

Data set [3] deals with db/db mice. The experiment in a line: 4-week treatment of db/db mice. The class given is in vivo. The protocol: as §2
Diabetic mice in group of four were treated by gavage with vehicle (0.5% carboxymethylcellulose, CMC, Sigma), WB403 50, 100 mg/kg or sitagliptin at 100 mg/kg daily for 4 weeks in db/db mice (n = 5 with chow diet), and 8 weeks in HFD/STZ mice (n = 8 with HFD, additional normal mice group with chow diet). During the entire dosing period, body weight, food intake and water intake were monitored three times per week, while FBG and PBG were measured weekly. Overnight fasted mice received an oral glucose challenge at 2 g/kg and postprandial 2 h blood glucose was measured. Animals were treated and assessed in the order of the vehicle, WB403 50, 100 mg/kg and sitagliptin 100 mg/kg group.
Fig 3 Effects of WB403 treatment in db/db mice. (A, B) FBG and PBG measured every week during the 4-week treatment period. (C, D) Serum levels of HbA1c, measured at the end of intervention by Adicon Clinical Laboratories (Shanghai, China) using an immunoturbidimetric assay on Beckman AU680 biochemical analyzer. (E) Average daily food intake per mouse during the treatment period. Data was collected three times per week. (F) Average daily water intake per mouse. (G) Body weight from different groups of mice. (H) Serum levels of insulin were measured at the end of intervention. Values are mean ± SEM (n = 5). *p<0.05, **p<0.01, ***p<0.001 vs. vehicle group.

The subject of data set [4] is normal mice. In words: 4-week treatment of normal mice (hypoglycemia risk). The class given is in vivo. The settings on record: 100 mg/kg, 4 weeks. The protocol: Mice were treated for 4 weeks by WB403 and sitagliptin at 100 mg/kg. Glibenclamide at 2.5 mg/kg was used as positive control for hypoglycemia. FBG (A) and PBG (B) were measured every week. Values are mean ± SD (n = 10). *p<0.05, **p<0.01 vs. vehicle group. (TIF) Click here for additional data file.

Another data set deals with HFD/STZ mice. The experiment in a line: pancreas histology (H&E) of treated HFD/STZ mice. The class given is in vivo. As to conditions: after 8-week treatment. The protocol: Analysis of islet cell mass was performed using conventional methods. In brief, mice were sacrificed by cervical dislocation. The body part of the pancreas was rapidly excised, fixed in 10% neutral buffered formalin solution for 24 h and embedded in paraffin, then sectioned at 5 μm ready for hematoxylin and eosin (H&E) staining and immunohistochemistry staining (IHC). The latter was carried out using rabbit anti-insulin polyclonal antibody (Cat. no. 4590, 1:600) and rabbit anti-glucagon monoclonal antibody (Cat. no. 8233s, 1:200) from Cell Signaling Technology.
Fig 5 WB403 preserved the mass of pancreatic β-cells and normal distribution of α and β-cells. (A) H&E staining of pancreas from db/db mice, and statistical result. Islets were sized by the Image J analysis software on alternated pancreatic sections spaced each by 100 μm. (B) Immunohistochemical analysis of pancreatic sections by anti-insulin antibody or anti-glucagon antibody. (C) H&E staining of pancreas from HFD/STZ mice, and statistical result. Results are representative islets from each group. 1–5 in the column graph on the right represents normal mice, diabetic mice treated with vehicle, WB403 50 mg/kg, WB403 100 mg/kg, sitagliptin 100 mg/kg respectively (n = 5). *p<0.05, **p<0.01, ***p<0.001 vs. diabetes-vehicle group.

Setting [5] is: db/db mice, 50, 100 mg/kg daily by gavage, after one week.
Setting [6] is: db/db mice, end of 4-week treatment.

As for `CCc1cc(-c2nc(C)c(COCc3ccc(Br)cc3)s2)ccn1` [WB403, 4-(5-((4-bromobenzyloxy)-methyl)-4-methylthiazol-2-yl)-2-ethylpyridine], the “GLP-1 stimulation in NCI-H716 cells” value in the data set on NCI-H716 cells was “much higher GLP-1 stimulation capacity; also recorded: outstanding effect in GLP-1 stimulation”. The “blood glucose tolerance (OGTT) vs vehicle” value in the data set with normal mice [1] is “significant improvement in blood glucose tolerance”. Further, the “blood glucose tolerance (OGTT) vs vehicle” value in the data set on db/db mice [2] was “The same results”. In the data set with db/db mice [3] (db/db mice, 4-week treatment), the body weight entry is “did not vary significantly”, the food intake result is “did not vary significantly” and the water intake result is given as “decreased”. Moreover, in the data set on db/db mice [3] (setting [5]), the FBG vs vehicle entry was “significantly decreased” and the PBG vs vehicle entry is listed as “significantly decreased”. Further, in the data set on db/db mice [3] (setting [6]), the “HbA1c levels vs vehicle” value was “significantly lower” and the serum insulin levels entry was “higher insulin levels”. Moreover, in the data set on normal mice [4], the “FBG lowering in normal mice” value is “did not cause significant FBG and PBG lowering”; the “PBG lowering in normal mice” value is “did not cause significant FBG and PBG lowering”. For the same molecule, the islet area result in the data set on HFD/STZ mice was “restored islet area but did not expand it beyond that of normal mice”.
